Assay [1] concerns monocyte-derived dendritic cells (moDCs). Put plainly: AAV2 vector transduction of monocyte-derived dendritic cells (moDCs). Format: cell-based, human. The conditions noted are these: 50 μM, WT scAAV2-EGFP, 48 hrs p.i. The method, then:
Cells and Antibodies. HEK293, HeLa and NIH3T3 cells were obtained from the American Type Culture Collection and maintained as monolayer cultures in DMEM (Invitrogen, Inc.) supplemented with 10% FBS (Sigma-Aldrich Co.) and antibiotics (Lonza, Inc.). Leukapheresis-derived peripheral blood mononuclear cells (PBMCs) (AllCells) were purified on Ficoll-Paque (GEHeathCare), resuspended in serum-free AIM-V medium (Lonza, Inc.), and semi-adherent cell fractions were incubated for 7 days with recombinant human IL-4 (500 U/mL) and GM-CSF (800 U/mL) (R&D Systems). Cell maturation was initiated with a cytokine mixture including 10 ng/mL TNF-α, 10 ng/mL IL-1, 10 ng/mL IL-6, and 1 mg/mL PGE2 (R&D Systems) for 48 hrs. Prior to EGFP expression cells were characterized for co-stimulatory molecules expression to ensure that they met the typical phenotype of mature dendritic cells (mDC) (CD80, RPE, murine IgG1; CD83, RPE, murine IgG1; CD86, FITC, murine IgG1; Invitrogen, Inc.). (Jayandharan et al., 2011)
Recombinant AAV Vector Transduction Assays In Vitro. […] Transgene expression was assessed as the total area of green fluorescence (pixel2) per visual field (mean±SD) as described previously (Markusic et al., 2011; Jayandharan et al., 2011). Analysis of variance was used to compare test results and the control, which were determined to be statistically significant.

In a further assay the test system is Hep293TT cells. Nature of the assay: AAV3 vector transduction assay in Hep293TT cells. Format: cell-based, human. The method, then: (§1) AAV Vector Transduction Assays. Huh7 or HeLa cells were seeded in 96-well plates at a concentration of 5,000 cells per well in complete DMEM medium. AAV infections were performed in serum- and antibiotic-free DMEM medium. Hep293TT cells were seeded in 96-well plates at a concentration of 10,000 cells per well in complete RPMI medium. The infections were performed in serum- and antibiotic-free RPMI medium. The expression of EGFP was analyzed by direct fluorescence imaging 72 hrs' post-transduction.

A further assay deals with Huh7 cells. Nature of the assay: AAV3 vector transduction assay in Huh7 cells. The conditions noted are these: increasing concentrations, 2 hr. It is filed as cell-based, human. How it is done:
as §1

In assay [2] the test system is HeLa cells. Nature of the assay: Recombinant AAV2 vector transduction assay in vitro (EGFP imaging). Format: cell-based, human. The method, then: Recombinant AAV2 Vector Transduction Assays in Vitro. Approximately 1×10^5 HeLa cells were used for transductions with recombinant AAV2 vectors. The transduction efficiency was measured 48-hr post-transduction by EGFP imaging using fluorescence microscopy. Images from three to five visual fields were analyzed quantitatively by ImageJ analysis software (NIH, Bethesda, Md., USA). Transgene expression was assessed as total area of green fluorescence (pixel^2) per visual field (mean±SD). Analysis of variance (ANOVA) was used to compare between test results and the control and they were determined to be statistically significant.
The transduction efficiency of each of the tyrosine-mutant vectors was analyzed and compared with the WT scAAV2-EGFP vector in HeLa cells in vitro under identical conditions. […] Specifically, the transduction efficiency of Y444F, Y500F, Y730F vectors was ˜8- to 11-fold higher than the WT vector.
In a second study, HeLa cells, either mock-treated or treated with Tyr23, a specific inhibitor of EGFR-PTK, or MG132, a proteasome inhibitor, both known to increase the transduction efficiency of AAV vectors, were mock-infected or infected with the WT or Y730F scAAV2-EGFP vectors.

The subject of assay [3] is HeLa cells. Put plainly: scAAV2 transduction of HeLa cells with MG132 or Tyr23 (positive control). The conditions noted are these: MG132 5 μM; Tyr23 200 μM. It is filed as cell-based, human. How it is done: as §1
Proteasome Inhibitors Increase the Transduction Efficiency of AAV3 Vectors. […] To evaluate whether MG132 can also improve AAV3 trafficking in target cells, Huh7, a well-established human hepatocellular carcinoma cell line (Nakabayashi et al., 1982), and Hep293TT, a recently established human hepatoblastoma cell line (Chen et al., 2009), were either mock-treated or treated with increasing concentrations of MG132. […] Transgene expression was determined by fluorescence microscopy 72 hrs post-transduction.
Previous studies have also shown that inhibition of EGFR-PTK signaling by Tyrphostin 23 (Tyr23), a specific inhibitor of EGFR-PTK (May et al., 1998), modulates the Ub/proteasome pathway, which in turn, facilitates intracellular trafficking and transgene expression mediated by AAV2 vectors (Zhong et al., 2007). […] Transgene expression was determined 72 hr post-transduction.

The subject of the next assay is HEK293 cells. Put plainly: AAV2 vector transduction assay in HEK293 cells (serine mutants, kinase inhibitors). It is filed as cell-based, human. The conditions noted are these: 50 μM, 1 hr; 1,000 vgs per cell. How it is done:
Recombinant AAV Vector Transduction Assays In Vitro. HEK293 or monocyte-derived dendritic cells (moDCs), were transduced with AAV2 vectors with 1,000 vgs/cell or 2,000 vgs/cell respectively, and incubated for 48 hr. Alternatively, cells were pretreated with 50 μM of selective serine/threonine kinase inhibitors 2-(2-hydroxyethylamino)-6-aminohexylcarbamic acid tert-butyl ester-9-isopropylpurine (for CaMK-II), anthra[1,9-cd]pyrazol-6(2H)-one, 1,9-pyrazoloanthrone (for JNK), and 4-(4-fluorophenyl)-2-(4-methylsulfinylphenyl)-5-(4-pyridyl)1H-imidazole (for MAPK) (CK59, JNK inhibitor 2, PD 98059, Calbiochem), 1 hr before transduction. Transgene expression was assessed as the total area of green fluorescence (pixel2) per visual field (mean±SD) as described previously (Markusic et al., 2011; Jayandharan et al., 2011). Analysis of variance was used to compare test results and the control, which were determined to be statistically significant.

The next assay relates to human CD34+ cells. Nature of the assay: Ex vivo transduction of human CD34+ cells by AAV serotype and tyrosine-mutant AAV6 vectors. Format: cell-based. How it is done: Human bone marrow CD34^+ and umbilical cord blood CD34^+ cells either were purchased from All-Cells (Berkeley, Calif., USA), or were obtained under an institutional review board-approved protocol, and maintained in either StemSpan SFEM medium ([…] Technologies, Inc, Vancouver, BC, CANADA) or IMDM with 10 ng/mL rhIL6 (PeproTech), 10 ng/mL rhIL3 (PeproTech, Rocky Hill, N.J., USA) and 1 ng/mL rhSCF (R&D Systems, Minneapolis, Minn., USA). CD34^+ cell purity was determined by flow cytometry and was >90%. Mouse HSCs, which were positive for Sca-1 and c-kit and negative for lineage markers (c-kit^+, Sca-1^+, lin^−), were isolated from 4-month-old male C57BL/6 mice as previously reported with slight modification. Briefly, femurs and tibias were obtained from C57BL/6 mice, and bone marrow cells were flushed from the bones with phosphate-buffered saline (PBS). […] APC-conjugated CD117 (c-kit) antibody and Alexa Fluor 700 conjugated Sca-1 antibody (Miltenyi Biotec Inc) were used during fluorescence-activated cell sorting (FACS). […]
Ex vivo transduction of HSCs. […] Mock-infected or infected cells were infused into recipient mice immediately after infection, or examined for transgene expression by fluorescence microscopy or by flow cytometry (Accuri C6; BD Biosciences) 48-72 hrs after infection.

Peptide text beside a SMILES is read from it. * marks the point of attachment. Cbz = O=C(OCc1ccccc1)*

Consider `O=C1c2ccccc2-c2n[nH]c3cccc1c23` [JNK inhibitor, anthra[1,9-cd]pyrazol-6(2H)-one, 1,9-pyrazoloanthrone], for which the “increase of EGFP expression levels by inhibitor pre-treatment” value in assay [1] is recorded as around 2 fold.
As to `CC(C)C[C@@H](C=O)NC(=O)[C@H](CC(C)C)NC(=O)[C@H](CC(C)C)NC(=O)OCc1ccccc1` [MG132] (Cbz-Leu-Leu-Leu-aldehyde), the “amounts of internalized viral DNA in presence or absence of inhibitor” value in the assay with Hep293TT cells is given as “no significant difference”. Moreover, the “transduction efficiency of scAAV3 vectors after treatment” value in the assay with Hep293TT cells (2 hr treatment) and in the assay with Huh7 cells was “dose-dependent increase” throughout. In the assay on HeLa cells [2], the “increase in transduction efficiency of WT scAAV2-EGFP by pretreatment” value is listed as around 6 fold. For the same compound, in the assay with HeLa cells [3], the “transduction efficiency of scAAV2 vectors after pretreatment” value is recorded as “significantly increased”.
Consider `C[S+]([O-])c1ccc(-c2nc(-c3ccc(F)cc3)c(-c3ccncc3)[nH]2)cc1` (centres unmarked) [p38 MAPK inhibitor, 4-(4-fluorophenyl)-2-(4-methylsulfinylphenyl)-5-(4-pyridyl)1H-imidazole], for which the “transduction efficiency of ssAAV2 and scAAV2 vectors after inhibitor pre-treatment” value in the assay with HEK293 cells is given as “most effective”.
For the compound “epidermal growth factor: epidermal growth factor”, the “effect on transduction efficiency of AAV6 vectors in CD34+ cells” value in the assay on human CD34+ cells is recorded as “no effect”.

The values above are taken from patent US12358954B2, “Capsid-modified rAAV vector compositions and methods therefor” (priority 2012, dated 2025).
